Assay results from US8420851B2, “Selective TR-β 1 agonist” (Cadila Healthcare Limited, priority 2006, dated 2013).

Experiments:
TR-α = biological target: T1, TR-α (Homo sapiens, UniProt P10827); assay: In vitro TR-α activity (in-house protocol); format: cell-based
T1 sequence (P10827 1-410 isoform P10827-2): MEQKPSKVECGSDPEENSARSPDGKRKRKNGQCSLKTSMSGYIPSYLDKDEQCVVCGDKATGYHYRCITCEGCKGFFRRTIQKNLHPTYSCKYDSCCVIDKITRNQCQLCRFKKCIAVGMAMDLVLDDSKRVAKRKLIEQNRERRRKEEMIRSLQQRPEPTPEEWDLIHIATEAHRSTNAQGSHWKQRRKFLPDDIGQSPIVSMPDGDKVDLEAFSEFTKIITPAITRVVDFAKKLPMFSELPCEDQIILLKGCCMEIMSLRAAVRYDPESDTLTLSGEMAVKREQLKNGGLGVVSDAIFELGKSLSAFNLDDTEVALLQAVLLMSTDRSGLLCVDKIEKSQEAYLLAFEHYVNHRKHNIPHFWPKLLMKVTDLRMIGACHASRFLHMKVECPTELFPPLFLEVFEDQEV
Procedure: (§1) Invitro TR-α & TR-β activities were determined as per in-house protocols and the results of representative compounds are provided in tables 1 & 2 below as a proof of the efficacies of the novel class of compounds disclosed above.

TR-β = biological target: T2, TR-β (Homo sapiens, UniProt P10828); assay: In vitro TR-β activity (in-house protocol); format: cell-based; settings: for fold induction at 0.001 µM: Conc. 1 nM; for fold induction at 0.001 µM / fold induction at 0.01 µM / fold induction at 0.1 µM / fold induction at 1 µM: read-out: TR-β Fold Induction w.r.t T3(100 nm); for fold induction at 0.01 µM: Conc. 10 nM; for fold induction at 0.1 µM: Conc. 100 nM; for fold induction at 1 µM: Conc. 1000 nM
T2 sequence (P10828 1-461): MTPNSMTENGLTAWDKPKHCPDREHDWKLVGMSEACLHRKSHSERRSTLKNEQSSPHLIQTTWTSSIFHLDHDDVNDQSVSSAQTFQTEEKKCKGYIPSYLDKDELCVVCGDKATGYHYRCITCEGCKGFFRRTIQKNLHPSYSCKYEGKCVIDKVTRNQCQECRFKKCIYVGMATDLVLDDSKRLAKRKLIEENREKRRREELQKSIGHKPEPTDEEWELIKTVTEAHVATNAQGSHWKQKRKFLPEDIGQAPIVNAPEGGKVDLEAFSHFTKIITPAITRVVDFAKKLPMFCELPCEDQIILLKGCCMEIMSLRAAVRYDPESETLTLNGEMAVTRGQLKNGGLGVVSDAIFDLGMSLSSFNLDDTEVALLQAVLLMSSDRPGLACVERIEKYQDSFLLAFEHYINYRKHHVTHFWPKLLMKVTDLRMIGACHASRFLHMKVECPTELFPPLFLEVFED
Procedure: as §1

Compound	EC50 (TR-α) [µM]	EC50 (TR-β) [µM]	TR-α Fold Induction w.r.t T3(100 nm) (TR-α; Conc. 1 nM)	TR-α Fold Induction w.r.t T3(100 nm) (TR-α; Conc. 10 nM)	TR-α Fold Induction w.r.t T3(100 nm) (TR-α; Conc. 100 nM)	TR-α Fold Induction w.r.t T3(100 nm) (TR-α; Conc. 1000 nM)	fold induction at 0.001 µM (TR-β)	fold induction at 0.01 µM (TR-β)	fold induction at 0.1 µM (TR-β)	fold induction at 1 µM (TR-β)
O=C(O)CN(C(=O)Oc1ccc(O)cc1)c1cc(Cl)c(Oc2ccc(O)c(C(=O)c3ccc(F)cc3)c2)c(Cl)c1 [Example 55, [{3,5-Dichloro-4-[3-(4-fluoro-benzoyl)-4-hydroxy-phenoxy]-phenyl}-(4-hydroxy-phenoxycarbonyl)-amino]-acetic acid]	0.107	0.0643								
O=C(O)CN(C(=O)Oc1ccc(O)cc1)c1cc(Cl)c(Oc2ccc(O)c(C(O)c3ccc(Cl)cc3)c2)c(Cl)c1 (centres unmarked) [Example 56, [(3,5-Dichloro-4-{3-[(4-chloro-phenyl)-hydroxy-methyl]-4-hydroxy-phenoxy}-phenyl)-(4-hydroxy-phenoxycarbonyl)-amino]-acetic acid]	0.0134	0.0204								
O=C(O)CN(C(=O)Oc1ccc(O)cc1)c1cc(Cl)c(Oc2ccc(O)c(S(=O)(=O)N3CCCCCC3)c2)c(Cl)c1 [Example 57, [{4-[3-(Azepane-1-sulfonyl)-4-hydroxy-phenoxy]-3,5-dichloro-phenyl}-(4-hydroxy-phenoxycarbonyl)-amino]-acetic acid]			21.61	24.62	35.93	60.40	12.6	14.8	23.6	62.5
O=C(O)CN(C(=O)Oc1ccc(O)cc1)c1cc(Cl)c(Oc2ccc(O)c(S(=O)(=O)N3CCOCC3)c2)c(Cl)c1 [Example 61, [{3,5-Dichloro-4-[4-hydroxy-3-(morpholine-4-sulfonyl)-phenoxy]-phenyl}-(4-hydroxy-phenoxycarbonyl)-amino]-acetic acid]			11.55	12.50	12.30	28.11	10.2	12.2	28.9	85.2
O=C(O)CN(C(=O)Oc1ccc(O)cc1)c1cc(Cl)c(Oc2ccc(O)c(S(=O)(=O)N3CCCC3)c2)c(Cl)c1 [Example 63, [{3,5-Dichloro-4-[4-hydroxy-3-(pyrrolidine-1-sulfonyl)-phenoxy]-phenyl}-(4-hydroxy-phenoxycarbonyl)-amino]-acetic acid]	0.337	0.254								
Cc1cccc(C(=O)c2cc(Oc3c(Cl)cc(N(CC(=O)O)C(=O)Oc4ccc(O)cc4)cc3Cl)ccc2O)c1 [Example 66, [{3,5-Dichloro-4-[4-hydroxy-3-(3-methyl-benzoyl)-phenoxy]-phenyl}-(4-hydroxy-phenoxycarbonyl)-amino]-acetic acid]			20.56	15.36	18.11	25.75	36.7	25.9	40.7	55.2
O=C(O)CN(C(=O)Oc1ccc(O)cc1)c1cc(Br)c(Oc2ccc(O)c(C(=O)c3ccc(Cl)cc3)c2)c(Br)c1 [Example 67, [{3,5-Dibromo-4-[3-(4-chloro-benzoyl)-4-hydroxy-phenoxy]-phenyl}-(4-hydroxy-phenoxycarbonyl)-amino]-acetic acid]	0.049	0.0128								
